Source: US20140271847A1, “FORMULATIONS AND METHODS FOR RAPID PENILE ERECTIONS” (SatisPharma, LLC, priority 2013, published 2014)
Counter-ions that a name gives are not always drawn.

Columns and labels:
penis = test: Time to penile erection / firmness after taking the ED medication or formulation; format: in vivo, human; details: blood circulation limited to about 50%; for time it remains effective / time to become effective: normal dose of 100 mg Viagra® or 10 mg Levitra®, one subject
From the text: Responses of individuals to ED medications may vary widely from one to another and from time to time. The nature and intensity of emotional and physical stimulation are significant factors, and the health of the individual can be significant. Fatigue, time of day, time since last coitus or ejaculation, and blood circulation are factors influencing response. One particular subject had no response to Cialis®. Their heart damage and occluded artery limit blood circulation to about 50%. Thus this particular subject is not a good benchmark for measuring the effectiveness of each formulation; this particular subject experiences a normal dose of 100 mg Viagra® or 10 mg Levitra® usually takes about 2 hours to become effective and then remains effective for about 8 hours (double the usual times for a person with normal blood circulation). Nevertheless, this subject has achieved erection and cotius within 30 minutes using some formulations of this invention.

[1] = cited from earlier work
[2] = Solubilities of ED medications in solvents known to permeate the skin (Example 1); format: physicochemical
Description: A series of experiments were performed in order to learn the solubilities of ED medications in solvents known to permeate the skin safely.

[3] = Solubility of ED medications as stated in the description; format: physicochemical
From the text: In order for an ED medication to be absorbed into mucosal tissues, it must first be dissolved in a medium of transport. […] Sildenafil citrate is also more soluble in ethanol than water and in propylene glycol than in water.

Question: What does the source list for `CCCc1nc(C)c2c(=O)[nH]c(-c3cc(S(=O)(=O)N4CCN(CC)CC4)ccc3OCC)nn12` [Vardenafil, vardenafil hydrochloride]?
Answer: time it remains effective (penis): about 8 hours; time to become effective (penis): about 2 hours; solubility in alcohols (in words) ([1]; alcohols): freely soluble; solubility in water (in words) [1]: freely soluble

Question: Which “response to ED medication” value (penis; one particular subject) does the source give for `CN1CC(=O)N2[C@H](c3ccc4c(c3)OCO4)c3[nH]c4ccccc4c3C[C@@H]2C1=O` [Tadalafil, tadalafil] here?
Answer: no response

Question: What about the “solubility in water (in words)” value [1] of the same compound?
Answer: freely soluble

Question: For `CCCc1nn(C)c2c(=O)[nH]c(-c3cc(S(=O)(=O)N4CCN(C)CC4)ccc3OCC)nc12.O=C(O)CC(O)(CC(=O)O)C(=O)O` [sildenafil citrate], which “time it remains effective” value (penis) is on record?
Answer: about 8 hours

Question: And the “time to become effective” value (penis)?
Answer: about 2 hours

Question: What about the “solubility in ethanol compared with water” value ([1]; ethanol versus water) of the same compound?
Answer: more soluble

Question: What about the “solubility in propylene glycol compared with water” value ([1]; propylene glycol versus water) of the same compound?
Answer: more soluble

Question: What about the “solubility in water relative to pH 7.0” value ([1]; water at pH=4, relative to 3.5 mg/ml at pH=7.0) of the same compound?
Answer: about triple

Question: What about the solubility in water ([1]; water at pH=7.0) of the same compound?
Answer: 3500 µg/mL

Question: And the “Result (solubility)” value ([2]; 35 mg sildenafil citrate in diethylene glycol monoethyl ether, 10 ml)?
Answer: slightly soluble

Question: What about the “Result (solubility)” value ([2]; 35 mg sildenafil citrate in ethanol, 190 proof, 10 ml) of the same compound?
Answer: fully soluble

Question: And the “Result (solubility)” value ([2]; 35 mg sildenafil citrate in glycerin, 10 ml + citric acid, 150 mg)?
Answer: dispersion

Question: And the “Result (solubility)” value ([2]; 35 mg sildenafil citrate in isopropyl myristate, 10 ml)?
Answer: mostly soluble

Question: And the “Result (solubility)” value ([2]; 35 mg sildenafil citrate in propylene glycol, 10 ml)?
Answer: fully soluble

Question: And the “Result (solubility)” value ([2]; 35 mg sildenafil citrate in triacetin 10 ml)?
Answer: dispersion

Question: What about the “Result (solubility)” value ([2]; 49 mg sildenafil citrate in nicotine, 2 ml) of the same compound?
Answer: fully soluble

Question: And the “Result (solubility)” value ([2]; 70 mg sildenafil citrate in ethanol, 190 proof, 10 ml)?
Answer: fully soluble

Question: What about the “Result (solubility)” value ([2]; 70 mg sildenafil citrate in propylene glycol, 10 ml) of the same compound?
Answer: mostly soluble

Question: What about the solubility in nicotine [3] of the same compound?
Answer: surprisingly high solubility
